The source made the active and inactive calls.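 Rule for the calls: active = IC50 at or below 20 µM in the dose response; inactive = the rest.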
System: HL-1 cardiomyocytes, 2-deoxyglucose injury, ATP luminescence, 2 h
Test: HL-1 cardiomyocyte survival under 2-deoxyglucose – cell-based, ATP luminescence, SAR follow-up (AID 623873)

Row | SMILES | IC50
1 | COCCNC(=O)C(c1ccc(O)cc1)N(C(=O)c1snc(C(N)=O)c1N)c1ccccc1F (configuration not stated) | > 79 µM (inactive)
2 | COc1ccccc1N1C(=O)c2ccccc2N2C(=O)c3c(ccc(OC)c3OC)C12 (configuration not stated) | 29.4 µM (inactive)
3 | COc1ccc2c(=O)c(C(=O)N3CCN(S(=O)(=O)c4c(C)cc(C)cc4C)CC3)c[nH]c2c1 | > 79 µM (inactive)
4 | COc1ccc2c(c1OC)C(=O)N1c3ccccc3C(=O)N(c3cccc(Br)c3)C21 (configuration not stated) | 0.684 µM
5 | CCCn1c(SC(C(=O)Nc2cccc(OC)c2)c2ccccc2)nc2ccccc2c1=O (configuration not stated) | > 79 µM (inactive)
6 | O=C(C(=O)N1CCCC1)c1c(-c2ccccc2)[nH]c2ccccc12 | > 79 µM (inactive)
7 | COc1cccc(CN(C)C(=O)c2cc(-c3ccc(OC)c(OC)c3)nc3ccccc23)c1 | 5.52 µM
8 | COc1ccc(-n2cc(-c3ccccc3)c3c(N4CCCCC4)ncnc32)cc1 | > 79 µM (inactive)
9 | COc1ccc2cc(C(=O)N3CCN(S(=O)(=O)c4cc(C)ccc4C)CC3)c(C)nc2c1 | > 79 µM (inactive)
10 | Cc1ccc2cc(CN(C)S(=O)(=O)c3ccc(F)cc3)c(=O)[nH]c2c1 | > 79 µM (inactive)
11 | CCCN(CC(=O)Nc1ccccc1OC)C(=O)c1cc(-c2cccs2)nn1-c1ccccc1 | > 79 µM (inactive)
12 | COc1ccc2c(c1OC)C(=O)N1c3ccccc3C(=O)N(c3ccc(F)cc3)C21 (configuration not stated) | 3.4 µM
13 | O=C(C(=O)N1CCCCC1)c1c(-c2ccccc2)[nH]c2ccccc12 | > 79 µM (inactive)
14 | COc1ccc(-c2cc(C(=O)NCc3ccccc3)c3ccccc3n2)cc1OC | > 79 µM (inactive)
15 | COc1cccc(NC(=O)CN(C)C(=O)c2cc(-c3cccs3)nn2-c2ccccc2)c1 | > 79 µM (inactive)
16 | COc1ccc(-c2cc(C(=O)NCc3ccco3)c3ccccc3n2)cc1OC | 20.8 µM (inactive)
17 | CCN(CC(=O)Nc1ccc(OC)cc1)C(=O)c1cc(-c2cccs2)nn1-c1ccccc1 | 2.27 µM
18 | Cc1ccccc1N(C(=O)c1snc(C(N)=O)c1N)C(C(=O)NCc1ccc(F)cc1)c1ccc(O)cc1 (configuration not stated) | > 79 µM (inactive)
19 | Cc1ccc(C)c(S(=O)(=O)N2CCN(C(=O)c3cc4cc(C)ccc4nc3C)CC2)c1 | > 79 µM (inactive)
20 | Cc1ccc(S(=O)(=O)N(Cc2cccnc2)Cc2cc3ccccc3[nH]c2=O)cc1 | > 79 µM (inactive)
21 | COc1ccc(S(=O)(=O)N(Cc2cccnc2)Cc2cc3ccccc3[nH]c2=O)cc1 | > 79 µM (inactive)

Row | SMILES | IC50
22 | COc1ccc(NC(=O)CN(C)C(=O)c2cc(-c3cccs3)nn2-c2ccccc2)cc1 | > 79 µM (inactive)
23 | COc1ccc(N2C(=O)c3ccccc3N3C(=O)c4c(ccc(OC)c4OC)C23)cc1 (configuration not stated) | 1.47 µM
24 | COCCn1c(SC(C(=O)Nc2cc(C)ccc2C)c2ccccc2)nc2ccccc2c1=O (configuration not stated) | > 79 µM (inactive)
25 | COc1ccc(-c2cc(C(=O)N(C)Cc3ccc(OC)c(OC)c3OC)c3ccccc3n2)cc1OC | 2.9 µM
26 | COc1cccc(CN(C)C(=O)c2cc(-c3ccccc3)nc3ccc(C)cc23)c1OC | > 79 µM (inactive)
27 | CCN(CC)S(=O)(=O)c1cc(C(=O)N2CCN(Cc3cccc4cccnc34)CC2)ccc1C | > 79 µM (inactive)
28 | COc1ccc(-n2cc(-c3ccccc3)c3c(N4CCCC4)ncnc32)cc1 | > 79 µM (inactive)
29 | COc1cc(-c2cc(C(=O)Nc3cccc(C(C)=O)c3)c3ccccc3n2)cc(OC)c1OC | 1.76 µM
30 | NC(=O)c1nsc(C(=O)N(Cc2ccccc2)C(C(=O)NCc2ccc(F)cc2)c2ccc(O)cc2)c1N (configuration not stated) | > 79 µM (inactive)
31 | O=c1[nH]c2ccccc2cc1CN(Cc1ccco1)S(=O)(=O)c1ccc(F)cc1 | > 79 µM (inactive)
32 | COc1cccc(NC(=O)C(Sc2nc3ccccc3c(=O)n2CC(C)C)c2ccccc2)c1 (configuration not stated) | > 79 µM (inactive)
33 | COc1ccc(-c2cc(C(=O)N(C)C)c3ccccc3n2)cc1OC | 71.9 µM (inactive)
34 | Cc1ccc(NC(=O)CN(C)C(=O)c2cc(-c3cccs3)nn2-c2ccccc2)cc1 | > 79 µM (inactive)
35 | COc1ccc2c(c1OC)C(=O)N1c3ccccc3C(=O)N(c3ccccc3C)C21 (configuration not stated) | 11.7 µM (inactive)
36 | COc1ccc(-n2cc(-c3ccccc3)c3c(NCc4ccccc4)ncnc32)cc1 | > 79 µM (inactive)
37 | NC(=O)c1nsc(C(=O)N(c2cccc(F)c2)C(C(=O)NC2CCCC2)c2ccc(O)cc2)c1N (configuration not stated) | > 79 µM (inactive)
38 | O=C1c2ccccc2N2C(=O)c3ccccc3[C@H]2N1c1ccccc1 | > 79 µM (inactive)
39 | CCN(CC)C(=O)C(=O)c1c(-c2ccccc2)[nH]c2ccccc12 | > 79 µM (inactive)
40 | Cc1ccc(-c2[nH]c3ccccc3c2C(=O)C(=O)N(C)C)cc1 | > 79 µM (inactive)
41 | Cc1ccc(S(=O)(=O)N2CCN(C(=O)c3cc(=O)[nH]c4ccccc34)CC2)cc1C | > 79 µM (inactive)
42 | COc1ccc2cc(C(=O)N3CCN(S(=O)(=O)c4ccc(C)cc4C)CC3)c(C)nc2c1 | > 79 µM (inactive)

Reference: PubChem BioAssay AID623873 (Sanford-Burnham Center for Chemical Genomics, 2012)
